Series [1] is described as follows: Rat liver microsomal stability assay. The format is in vitro ADME. The note with it: both sexes, pH 7.4; pooled rat liver microsomes 0.5 mg/mL, 3 μM compound, NADPH, 37° C., 45 min; read-out: Microsomal stability T1/2 Rat. The protocol:
(§1) Metabolic stability of indole-oxadiazole derivatives of Formula I was measured by determination of the rate of compound disappearance when incubated in the presence of human or rat liver microsomes. Liver microsomes are prepared from the endoplasmic reticulum of hepatocytes and are the primary source of the most important enzymes (cytochrome P450) involved in drug metabolism. Study of drug stability in the presence of liver microsomes is accepted as a valuable model permitting rapid prediction of in vivo drug stability.
(§2) Human and rat liver microsomes were obtained from commercial sources. Test compounds (3 μM) were incubated with pooled liver microsomes (male and female). Samples were incubated for a 45 minute period and removed at 5 time points and test compounds were analysed by LC-MS/MS.
(§3) Microsomes (final protein concentration 0.5 mg/mL), 0.1 M phosphate buffer pH 7.4, and test compound (final concentration 3 μM; diluted from 10 mM stock solution to give a final DMSO concentration of 0.25%) were incubated at 37° C. prior to the addition of NADPH (final concentration 1 mM) to initiate the reaction. The final incubation volume was 25 μL. A control incubation was included for each compound tested, where 0.1 M phosphate buffer pH 7.4 was added instead of NADPH. The control compounds testosterone and 7-hydroxycoumarin were included in each experiment and all incubations were performed singularly for each compound.
(§4) Each compound was incubated for 0, 5, 15, 30, and 45 minutes. The control (minus NADPH) was incubated for 45 minutes only. The reactions were stopped by the addition of 50 μL methanol containing internal standard at the appropriate time points. The incubation plates were centrifuged at 2500 rpm for 20 minutes at 4° C. to precipitate the protein.
(§5) Following protein precipitation, the sample supernatants were combined in cassettes of up to 4 compounds and analysed using standard LC-MS/MS conditions.
(§6) From a plot of the natural logarithm of the peak area ratio (i.e., the ratio of compound peak area:internal standard peak area) against time, the gradient of the line was determined. Subsequently, half-life and intrinsic clearance were calculated using the equations below:
(§7) Eliminated rate constant (k)=(−gradient).
(In general: Microsomes from liver hold many membrane-bound enzymes, among them those of drug oxidation.)

The target of the next series is T1, cannabinoid CB1 receptor (Homo sapiens, UniProt P21554).
T1 construct: host or cells: HEK293 CB1 β-arrestin cells
In words: PathHunter β-Arrestin assay (allosteric inhibition of agonist Emax). The format is cell-based. The note with it: HEK293 CB1 β-arrestin cells; concentration of modulator giving 50% reduction in agonist Emax; 60 min pre-incubation. From the text: PathHunter™ enzyme fragment complementation is the most important method to measure β-arrestin recruitment. PathHunter™ β-Arrestin assays developed by DiscoveRX are revolutionary high-throughput screening assays for monitoring GPCR activation following ligand stimulation, without an imaging instrument, fluorescent protein tag, or radioactivity.
Instead, the assays detect GPCR activation through binding of β-arrestin to the expressed GPCR of interest, and measure the interaction of the two proteins using enzyme fragment complementation (EFC). The EFC approach offers a range of benefits for screening, including signal amplification and robust performance.
The larger portion of β-gal, termed EA for enzyme acceptor, is fused to the C-terminus of β-arrestin. The smaller, complementing fragment of β-gal, the ProLink™ tag, is expressed as a fusion protein with the GPCR of interest at the C-terminus. Upon activation, the GPCR is bound by β-arrestin. The interaction of β-arrestin and the GPCR forces the interaction of ProLink and EA, thus allowing complementation of the two fragments of β-gal and the formation of a functional enzyme capable of hydrolyzing substrate and generating a […] signal.
Using the PathHunter™ CB1 kit from DiscoveRX, a cannabinoid CB1 receptor agonist is added and activates the receptor, EA, which is fused to the C-terminus of β-arrestin, and then interacts with the ProLink™ tag which is fused to the CB1 receptor. This will result in the […] signal that is recorded by a luminescence plate reader. The […] signal is directly related to the activation of the receptor, therefore a higher concentration of agonist will yield a larger […] signal. The cannabinoid agonist is added in increasing concentrations to obtain an agonist dose response curve. With pre-incubation of a potential allosteric modulator, either an enhancement of agonist activity with an allosteric enhancer or a decrease in the maximal response of the agonist with an allosteric inhibitor is expected.
All raw data are obtained as luminescence (relative light units), and are normalised and presented as a percentage of the maximal response for the cannabinoid CB1 receptor agonist CP55,940 (2-[(1R,2R,5R)-5-hydroxy-2-(3-hydroxypropyl)cyclohexyl]-5-(2-methyloctan-2-yl)phenol).
The PathHunter™ β-Arrestin assay (from DiscoveRX, Fremont, USA) was performed as follows. HEK293 CB1 β-arrestin cells were plated 48 hours before use and incubated at 37° C., 5% CO2 in a humidified incubator. Test compounds were dissolved in dimethylsulfoxide (DMSO) and diluted in optimized cell culture (OCC, as supplied by DiscoveRX) media to the required concentrations. 5 μL of test compound or vehicle solution was added to each well and incubated for 60 minutes at 37° C., 5% CO2 in a humidified incubator. 5 μL of increasing concentrations of anandamide was added to each well followed by a 90-minute incubation at 37° C., 5% CO2 in a humidified incubator. 55 μL of detection reagent (as supplied by DiscoveRX) was then added, followed by a further 90 minute incubation at room temperature in the dark. Chemiluminescence, reported in relative light units (RLU—a dimensionless value, standardised as a % of maximum stimulation with anandamide), was measured on a standard luminescence plate reader.
Data were plotted as % of maximal stimulation (Emax) caused by agonist versus the logarithm of concentration of agonist, in the presence or absence of a fixed concentration of test compound (modulator) or vehicle. For example, stimulation in the presence of agonist alone will give a value for stimulation expressed in RLU, which can be expressed as a range from 0% (at lowest agonist concentration, e.g., 1 nM) to 100% (at the highest agonist concentration, e.g., 10 μM). […]

Series [2] can be described thus: Human liver microsomal stability assay. The format is in vitro ADME. The note with it: both sexes, pH 7.4; pooled human liver microsomes 0.5 mg/mL, 3 μM compound, NADPH, 37° C., 45 min; read-out: Microsomal stability T1/2 Human. The protocol: as §1, §2, §3, §4, §5, §6, §7
Series [3] deals with T2, CB1 receptor (Mus musculus, UniProt P47746). More on the design: from the CB1 receptor in mouse brain membranes; from tissue; host or cells: mouse brain membranes. The note with it: mouse brain membranes; cited from earlier work.
Series [4] deals with T2, CB1 receptor. The note with it: equilibrium binding assay, cited from earlier work; for effect on binding of CP55940: agonist CP55940.

T1 sequence (P21554 whole entry): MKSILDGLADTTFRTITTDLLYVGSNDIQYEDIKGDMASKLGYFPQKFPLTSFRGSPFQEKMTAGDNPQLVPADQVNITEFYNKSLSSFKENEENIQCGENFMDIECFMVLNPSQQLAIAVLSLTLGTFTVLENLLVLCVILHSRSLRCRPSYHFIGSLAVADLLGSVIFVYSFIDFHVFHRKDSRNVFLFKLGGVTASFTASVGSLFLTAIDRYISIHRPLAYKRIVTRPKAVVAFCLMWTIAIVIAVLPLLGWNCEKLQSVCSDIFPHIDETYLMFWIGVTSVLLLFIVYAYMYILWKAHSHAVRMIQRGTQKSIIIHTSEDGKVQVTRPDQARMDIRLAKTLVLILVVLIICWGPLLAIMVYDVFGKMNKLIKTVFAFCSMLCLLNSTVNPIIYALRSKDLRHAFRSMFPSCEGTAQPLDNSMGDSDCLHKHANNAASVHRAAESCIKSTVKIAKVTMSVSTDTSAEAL
T2 sequence (P47746 whole entry): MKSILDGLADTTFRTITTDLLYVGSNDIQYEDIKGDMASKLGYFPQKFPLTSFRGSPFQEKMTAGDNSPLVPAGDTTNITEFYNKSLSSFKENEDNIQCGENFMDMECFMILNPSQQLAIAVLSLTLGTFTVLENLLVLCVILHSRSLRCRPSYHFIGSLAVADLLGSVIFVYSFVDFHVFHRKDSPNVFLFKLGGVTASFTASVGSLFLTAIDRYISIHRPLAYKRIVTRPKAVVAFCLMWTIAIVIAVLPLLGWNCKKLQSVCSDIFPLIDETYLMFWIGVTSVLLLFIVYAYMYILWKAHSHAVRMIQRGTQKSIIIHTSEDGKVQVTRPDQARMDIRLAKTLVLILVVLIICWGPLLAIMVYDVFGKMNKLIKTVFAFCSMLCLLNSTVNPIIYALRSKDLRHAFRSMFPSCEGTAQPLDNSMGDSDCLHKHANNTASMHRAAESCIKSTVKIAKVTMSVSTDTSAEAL

Regarding `CCc1c(-c2nnc(SCc3ccccc3)o2)[nH]c2ccc(Cl)cc12` [ABM328, 2-(Benzylthio)-5-(5-chloro-3-ethyl-1H-indol-2-yl)-1,3,4-oxadiazole], the melting point (in general, the temperature of the solid-liquid transition) was in the range of 180 to 182 °C. In series [1], the half-life at 3 μM is 40 min. Further, the IC50 (usually the midpoint of a concentration-inhibition curve) at cannabinoid CB1 receptor was determined as 58 nM. For the same compound, the half-life at 3 μM in series [2] was 46 min.
As for `Cc1c(-c2nnc(Nc3ccc(F)cc3)o2)[nH]c2ccc(Cl)cc12` [ABM337, 5-(5-Chloro-3-methyl-1H-indol-2-yl)-N-(4-fluorophenyl)-1,3,4-oxadiazol-2-amine], the melting point lay within 256 to 258 °C. Besides, the IC50 at cannabinoid CB1 receptor worked out at 1 nM.
Turning to `CCc1c(-c2nnc(Nc3ccc(F)cc3)o2)[nH]c2ccc(Br)cc12` [ABM338, 5-(5-Bromo-3-ethyl-1H-indol-2-yl)-N-(4-fluorophenyl)-1,3,4-oxadiazol-2-amine], the melting point lay within 243 to 245 °C. In series [1], the half-life at 3 μM was 292 min. Further, at cannabinoid CB1 receptor, the IC50 worked out at 1 nM. Besides, the half-life at 3 μM in series [2] stood at 174 min.
With `Cc1c(-c2nnc(SCc3ccc(F)cc3)o2)[nH]c2ccc(Cl)cc12` [ABM339, 2-(5-Chloro-3-methyl-1H-indol-2-yl)-5-((4-fluorobenzyl)thio)-1,3,4-oxadiazole], the melting point lay within 210 to 212 °C. The IC50 at cannabinoid CB1 receptor turned out to be 270 nM.
In the case of `CCc1c(-c2nnc(SCc3ccc(F)cc3)o2)[nH]c2ccc(Br)cc12` [ABM340, 2-(5-Bromo-3-ethyl-1H-indol-2-yl)-5-((4-fluorobenzyl)thio)-1,3,4-oxadiazole], the melting point was 185 to 187 °C. In series [1], the half-life at 3 μM came to 23 min. Besides, the IC50 at cannabinoid CB1 receptor is 19 nM. The half-life at 3 μM in series [2] is 40 min.
Consider `CCc1c(C(=O)NCCc2ccc(N(C)C)cc2)[nH]c2ccc(F)cc12` [ORG27759], for which the “effect on dissociation of radiolabelled CB1 receptor agonist CP55940” value (“effect on dissociation” below) at CB1 receptor [3] was “slowing of the dissociation”. For the same compound, on CB1 receptor [4], the “effect on binding of CP55940” value is reported as “increase” and the “effect on binding of radiolabelled inverse agonist SR141716A” value is “decrease”.
`CCc1c(C(=O)NC2CCN(Cc3ccccc3)C2)[nH]c2ccc(Cl)cc12` (stereo not shown) [ORG29647]: the “effect on dissociation” value at CB1 receptor [3] is “slowing of the dissociation”. Moreover, at CB1 receptor [4], the “effect on binding of CP55940” value is listed as “increase” and the “effect on binding of radiolabelled inverse agonist SR141716A” value is “decrease”.
With `CCc1c(C(=O)NCCc2ccc(N3CCCCC3)cc2)[nH]c2ccc(Cl)cc12` [Reference compound 1 (Org27569)], in series [1], the half-life at 3 μM was found to be 28 min. Also, the “effect on dissociation” value at CB1 receptor [3] is recorded as “slowing of the dissociation”. In series [2], the half-life at 3 μM was found to be 32 min. At CB1 receptor [4], the “effect on binding of CP55940” value is “increase” and the “effect on binding of radiolabelled inverse agonist SR141716A” value is listed as “decrease”.
As to `O=S(=O)(NCc1ccc(-c2ccc(F)cc2F)cn1)c1cc2cc(Cl)ccc2[nH]1` [Reference compound 2 (ABD1075), reference compound], the half-life at 3 μM in series [1] amounted to 32 min; in series [2], 56 min.
Take `O=S(=O)(NCc1ccc(-c2ccc(F)nc2F)cc1)c1cc2cc(Cl)ccc2[nH]1` [Reference compound 3 (ABD1085), reference compound]: the half-life at 3 μM in series [1] stood at 48 min; in series [2], 39 min.

The values above are taken from patent US20220257569A1, “INDOLE-OXADIAZOLE COMPOUNDS AND THEIR THERAPEUTIC USE” (THE GOVERNING COUNCIL OF THE UNIVERSITY OF TORONTO, priority 2018, published 2022).
